# Measurements: paper PMC6095626, “Screening of the Pathogen Box for inhibitors with dual efficacy against Giardia lamblia and Cryptosporidium parvum” (PLoS Neglected Tropical Diseases, 2018)
# Like-named read-outs stand apart in the source and are kept apart here. Marks after values point to notes of the source that are not given here.
# How the values were obtained:
# [1] = Cytotoxicity against HepG2 cells, AlamarBlue viability assay, 48 hours; assay type: cell-based, human; conditions: human, HepG2 cells, read-out: HepG2 CC50 (this study)
# Description: (§1) Mammalian cell cytotoxicity assay data performed on HepG2 (human hepatocellular carcinoma) cells and described as CC20 or CC50 values are provided in supporting documentation that accompanied the Pathogen Box for approximately three quarters of the 400 compounds. However, no details of the assay conditions or parameters were provided. In this study, selected compounds were further tested for cytotoxicity against HepG2 cells as previously described. Briefly, cells were exposed to two-fold serial dilutions of compounds for 48 hours and cytotoxicity was assessed using the AlamarBlue® viability assay (Thermo Fisher Scientific, Waltham, MA). Each dilution was assayed in quadruplicate and concentrations causing 50% growth inhibition (CC50) were calculated by non-linear regression using GraphPad Prism 7 software (GraphPad Software, San Diego, CA).
# [2] = system: G. lamblia trophozoites (luciferase expressing, WBC6); experiment: microbe, parasite or virus in culture; assay type: cell-based, Giardia lamblia; conditions: for EC50: read-out: G. lamblia EC50; for inhibition at 16 µM: read-out: Giardia (16 uM) Mean % inhibition; for Giardia (16 uM) Mean % inhibition: initial Pathogen Box screen, single concentration 16 µM, inhibition compared to DMSO wells
# In short: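 Luciferase-expressing WBC6 trophozoites plated at 250,000 cells/mL, compounds added 1:1, incubated anaerobically (GasPak bags) at 37 °C for 24 h; viability read by bioluminescence, with duplicate plates counted on a MOXI Z cell counter. Metronidazole control serially diluted 1:2 from 40 μM.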
# G. lamblia = conditions: read-out: G. lamblia EC50 (literature), cited from earlier work
# HepG2 cells [3] = conditions: cited from earlier work; for HepG2 CC20 (literature values): CC20 (footnote ^); for CC50: read-out: HepG2 CC50 (literature values)
# [4] = system: C. parvum (UGA1 Nluc expressing strain in HCT-8 cells); experiment: microbe, parasite or virus in culture; assay type: cell-based, Cryptosporidium parvum; conditions: for Crypto (10 uM) Mean % inhibition: initial Pathogen Box screen, single concentration 10 µM, inhibition compared to DMSO wells; for C. parvum cell growth inhibition in the initial screen: 10 μM
# In short: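 HCT-8 monolayers grown 48 h to 90–100% confluence, treated with compound at 10 μM or serial dilutions, then infected with bleach-treated UGA1 Nluc C. parvum oocysts.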
# HepG2 cells [5] = experiment: Cytotoxicity against HepG2 cells, AlamarBlue viability assay, 48 hours; assay type: cell-based, human; conditions: read-out: HepG2 CC50 (this study)
# Description: as §1
# HCT-8 host cells = experiment: Toxicity to HCT-8 host cells seen in the C. parvum assay; assay type: cell-based; conditions: no reliable C. parvum EC50 could be determined
# Method: Growth inhibition and EC50 determination assays were performed using UGA1 Nluc expressing C. parvum strain in HCT-8 cells (ATCC^©, Manassas, VA) as previously described. HCT-8 cells were inoculated onto 96-well plates and allowed to grow for 48 hours to 90–100% confluence and then treated with single concentration (10 μM) or serially diluted compounds prior to oocyst infection. C. parvum oocysts were incubated for 10 minutes in 10% bleach at room temperature and then washed with DPBS. One thousand oocysts per well were applied to the 96 well plates with RPMI-1640 medium supplemented with 10% horse serum and 1% penicillin/streptomycin at the same time as compound addition and incubated for 48 hours. The cell monolayers were lysed for 1 hour before adding Nano-Glo® luciferase reagent (Promega, Madison, WI), and measuring relative luminescence units (RLU) in an EnVision Plate Reader (Perkin Elmer, Waltham, MA). Several parameters, including reproducibility and reliability, were previously evaluated to optimize this assay for low and high-throughput (HTP) screening of small molecule compounds against C. parvum. EC50 values were calculated using Prism 7 software (GraphPad Software, San Diego, CA).
# C. parvum = conditions: cited from earlier work
# G. lamblia trophozoites = experiment: G. lamblia growth inhibition counted with MOXI Z Mini Automated Cell Counter; assay type: cell-based; conditions: Giardia duodenalis, 24 h, read-out: G. lamblia EC50 by MOXI coulter counter
# Method: Preliminary effective concentration that causes 50% growth inhibition (EC50) assays were performed on the luciferase expressing and wild-type (control) G. lamblia cells to establish a correlation between manually counted cells and the bioluminescent signal read out. Trophozoites were harvested by chilling cultures on ice for 30 minutes and plated by adding 150 μL per well at a concentration of 250,000 cells/mL. Metronidazole (Sigma, St. Louis, MO) was used as a control and was serially diluted 1:2 from 40 μM to 0.04 μM and 150 μL was added to the 150 μL of the G. lamblia trophozoites. Plates were covered in plastic low-evaporation lids, sealed in individual anaerobic BD GasPak Bio-Bags (Becton Dickinson, San Jose, CA) and incubated at 37 °C for 24 hours. Plates were then iced for 30 minutes and 250 μL of resuspended cells were transferred to a solid white 96-well plate and 50 μL of 10 mg/mL D-luciferin was added to a final reaction concentration of 1.67 mg/mL. Plates were incubated on a plate shaker at 37 °C for 30 minutes and read on an EnVision Plate Reader. A duplicate plate was concurrently set up and assayed using a MOXI Z Mini Automated Cell Counter Kit (Orflo, Ketchum, ID). Results obtained from the bioluminescence assay and the MOXI counter data were compared to evaluate their correlation to each another. […]
# [6] = ref Pathogen_Box_Activity_Biological_Data_ Structure & Smiles (https://www.pathogenbox.org/about-pathogen-box/composition)
# [7] = Cryptosporidium parvum, HCT-8, 48 h, read-out: C. parvum EC50, Nluc C. parvum in HCT-8 cells, 48 hours
# [8] = Cryptosporidium parvum, HCT-8, read-out: Crypto (10 uM) Mean % inhibition
# [9] = luciferase expressing G. lamblia trophozoites, 24 hours, D-luciferin bioluminescence read-out
# [10] = IOWA strain (48h), read-out: C. parvum EC50 (literature)
SMILES,CC50 at 48 h [1] [nM],"EC50 ([2]; Giardia duodenalis, 24 h) [nM]",inhibition at 16 µM ([2]; Giardia duodenalis) [%],EC50 (G. lamblia; reference strain WB (48h)) [nM],HepG2 CC20 (literature values) (HepG2 cells [3]; [6]),"EC50 [4, 7] [nM]","inhibition at 10 µM [4, 8] [%]",Giardia (16 uM) Mean % inhibition [2] [%],also measured
"CC(=O)Oc1ccccc1C(=O)Nc1ncc([N+](=O)[O-])s1 [MMV688991, Nitazoxanide, reference compound]",10700,800 ± 100,97,610,6.35 ^* ^^ μM,3100 ± 400,92,,EC50 (G. lamblia; WB strain (48h)): 800 nM
"CC1CS(=O)(=O)CCN1/N=C/c1ccc([N+](=O)[O-])o1 (centres unmarked) [MMV001499, Nifurtimox, reference compound]",> 40000,640 ± 120,97,370,>80 ^* ^^ μM,,< 0,,
O=C(Nc1ccc(C(F)(F)F)c(C(F)(F)F)c1)c1cc(Cl)ccc1O [MMV687807],,,,,,,,97,"CC50 (HepG2 cells [5]): < 5000 nM; EC50 [2, 9]: 510 ± 60 nM; Toxicity to HCT-8 host cells in the C. parvum assay (HCT-8 host cells): too toxic to the HCT-8 host cells; CC50 (HepG2 cells [3]; [6]): 700 nM; Crypto (10 uM) Mean % inhibition [4]: 90%"
"CC(C)/N=c1\cc2n(-c3ccc(Cl)cc3)c3ccccc3nc-2cc1Nc1ccc(Cl)cc1 [MMV687800, Clofazimine, reference compound]",26400,1790 ± 230,98,,,3300,82,,"CC50 (HepG2 cells [3]): > 20000 nM; EC50 (C. parvum; [10]): 15 nM; EC50 ([4]; read-out: C. parvum EC50, Nluc C. parvum in HCT-8 cells, 48 hours): 3330 ± 1200 nM"
"Cc1ncc([N+](=O)[O-])n1CCO [metronidazole, Metronidazole]",,2240,,8650,,,,,EC50 (G. lamblia trophozoites): 1060 nM; EC50 (G. lamblia): ~5000 nM
CC(C)C(Oc1cccc2ccccc12)C(=O)O (centres unmarked) [MMV676191],,,,,,,,9,"EC50 (C. parvum; ref MMV Pathogen_Box_Activity_Biological_Data_Smiles (https://www.pathogenbox.org/about-pathogen-box/composition), read-out: C. parvum EC50 reported in Pathogen Box datasheet): > 10000 nM; C. parvum cell growth inhibition in the initial screen ([4]; 48 hours): 36%"
"CCOc1ccc2cc(-c3nn(CC4CCN(C)CC4)c4ncnc(N)c34)ccc2c1 [MMV688854, reference compound]",,,,,,,,9,"EC50 (C. parvum; same strain of Nluc C. parvum, read-out: C. parvum EC50 (previously shown)): 2700 nM; C. parvum cell growth inhibition in the initial screen ([4]; 48 hours): 79%"
"CC(=O)OCC1OC([S-])C(OC(C)=O)C(OC(C)=O)C1OC(C)=O.CCP(CC)CC.[Au+] (centres unmarked) [MMV688978, Auranofin, reference compound]",,,,,,,,98,"CC50 (HepG2 cells [5]): 500 nM; EC50 [2, 9]: 3740 ± 460 nM; EC50 (G. lamblia; WB strain (48h)): 4000 to 6000 nM; CC50 (HepG2 cells [3]): 4500 nM; EC50 (C. parvum; [10]): 2000 nM; EC50 ([4]; Nluc C. parvum in HCT-8 cells, 48 hours, read-out: C. parvum EC50): 3340 ± 2700 nM; Crypto (10 uM) Mean % inhibition [4]: 93%"
"Oc1c(I)cc(I)c2cccnc12 [MMV002817, Iodoquinol, reference compound]",~40000,2520 ± 450,82,,2.50 ^* ^^ μM,480 ± 200,95,,"inhibition at 10 µM ([4]; Cryptosporidium parvum, HCT-8, 48 h, read-out: C. parvum cell growth inhibition in the initial screen): ≥ 95%"
